Measured values reported in PMC10251843 (Animals : an Open Access Journal from MDPI, 2023).
Marks after values point to notes of the source that are not given here.

Tests used:
Settings in all cases: mean ± SD
plasma protein [1] = experiment: Plasma protein binding ratio (PPBR) by ultrafiltration, yellow catfish plasma; format: in vitro ADME, yellow catfish (Pelteobagrus fulvidraco)
Method: (§1) The detailed procedures and the pretreatment of the ultrafiltration unit (UFU) were in line with the previous reports. In brief, the nonspecific absorption (NSB) of UFU was first checked before and after pretreatment of 5% Tween 80. […] Firstly, 100 μL of the sample was used to evaluate the initial concentration before centrifugation. […] To reduce the NSB of UFU, 100 μL of 5% Tween 80 was used to treat UFU at 25 °C for 5 min, and 0.5 mL of physiological saline was used to wash off Tween 80. The NSB of UFU was repeatedly determined again in light of the above-mentioned method.
(§2) The samples of sterile physiological saline were detected without extraction by HPLC. As for the samples of plasma, 0.1 mL of plasma was decanted into a 10 mL centrifugation tube. The extraction method is the same as the reported literature.
(§3) The proportion of the mobile phase was 82:18 (water containing 0.2% formic acid and pure acetonitrile, v/v), following the flow rate of 0.8 mL/min. The excitation wavelength was 280 nm. The emission wavelength was 450 nm.

plasma protein [2] = experiment: Plasma protein binding ratio (PPBR) by ultrafiltration, grass carp plasma; format: in vitro ADME, grass carp (Ctenopharyngodon idella)
Method: as §1, §2, §3

plasma protein [3] = experiment: Plasma protein binding ratio (PPBR) by ultrafiltration, largemouth bass plasma; format: in vitro ADME, largemouth bass (Micropterus salmoides)
Method: as §1, §2, §3

[4] = 1 μg/mL, 25 °C, n = 3, listed as Enrofloxacin
[5] = 5 μg/mL, 15 °C, n = 3, listed as Enrofloxacin
[6] = 5 μg/mL, 20 °C, n = 3, listed as Enrofloxacin
[7] = 5 μg/mL, 25 °C, n = 3, listed as Enrofloxacin
[8] = 10 μg/mL, 15 °C, n = 3, listed as EF
[9] = 10 μg/mL, 15 °C, n = 3, listed as Enrofloxacin
[10] = 10 μg/mL, 20 °C, n = 3, listed as Enrofloxacin
[11] = 10 μg/mL, 25 °C, n = 3, listed as Enrofloxacin
[12] = 1 μg/mL, 15 °C, n = 3, listed as EF

Compound: CCN1CCN(c2cc3c(cc2F)c(=O)c(C(=O)O)cn3C2CC2)CC1 [Enrofloxacin (EF), Enrofloxacin]
- PPBRs (%) (plasma protein [1]; 1 μg/mL, 20 °C, n = 3): 46.10 ± 3.13 ^a %
- PPBRs (%) (plasma protein [1]; 1 μg/mL, 20 °C, n = 3, listed as EF): 46.10%
- PPBRs (%) (plasma protein [1]; 1 μg/mL, 25 °C, n = 3): 43.90 ± 3.62 ^a %
- PPBRs (%) (plasma protein [1]; 1 μg/mL, 25 °C, n = 3, listed as EF): 43.9%
- PPBRs (%) (plasma protein [1]; [4]): 43.90 ± 3.62 ^ab %
- PPBRs (%) (plasma protein [1]; 5 μg/mL, 15 °C, n = 3): 22.53 ± 6.86 ^b %
- PPBRs (%) (plasma protein [1]; 5 μg/mL, 15 °C, n = 3, listed as EF): 22.53%
- PPBRs (%) (plasma protein [1]; [5]): 22.53 ± 6.86 ^a %
- PPBRs (%) (plasma protein [1]; 5 μg/mL, 20 °C, n = 3): 21.24 ± 6.93 ^b %
- PPBRs (%) (plasma protein [1]; [6]): 21.24 ± 6.93 ^a %
- PPBRs (%) (plasma protein [1]; 5 μg/mL, 25 °C, n = 3): 17.29 ± 0.69 ^b %
- PPBRs (%) (plasma protein [1]; 5 μg/mL, 25 °C, n = 3, listed as EF): 17.29%
- PPBRs (%) (plasma protein [1]; [7]): 17.29 ± 0.69 ^a %
- PPBRs (%) (plasma protein [1]; 10 μg/mL, 15 °C, n = 3): 9.66 ± 4.09 ^c %
- PPBRs (%) (plasma protein [1]; [8]): 9.66%
- PPBRs (%) (plasma protein [1]; [9]): 9.66 ± 4.09 ^ab %
- PPBRs (%) (plasma protein [1]; 10 μg/mL, 20 °C, n = 3): 13.52 ± 4.74 ^b %
- PPBRs (%) (plasma protein [1]; 10 μg/mL, 20 °C, n = 3, listed as EF): 13.52%
- PPBRs (%) (plasma protein [1]; [10]): 13.52 ± 4.74 ^a %
- PPBRs (%) (plasma protein [1]; 10 μg/mL, 25 °C, n = 3): 4.36 ± 0.58 ^c %
- PPBRs (%) (plasma protein [1]; 10 μg/mL, 25 °C, n = 3, listed as EF): 4.36%
- PPBRs (%) (plasma protein [1]; [11]): 4.36 ± 0.58 ^b %
- PPBRs (%) (plasma protein [2]; 1 μg/mL, 15 °C, n = 3): 60.52 ± 0.99 ^a %
- PPBRs (%) (plasma protein [2]; [12]): 60.52%
- PPBRs (%) (plasma protein [2]; 1 μg/mL, 20 °C, n = 3): 51.27 ± 1.56 ^a %
- PPBRs (%) (plasma protein [2]; 1 μg/mL, 20 °C, n = 3, listed as Enrofloxacin): 51.27 ± 1.56 ^b %
- PPBRs (%) (plasma protein [2]; 1 μg/mL, 25 °C, n = 3): 50.09 ± 2.06 ^a %
- PPBRs (%) (plasma protein [2]; [4]): 50.09 ± 2.06 ^b %
- PPBRs (%) (plasma protein [2]; 5 μg/mL, 15 °C, n = 3): 33.77 ± 0.07 ^B %
- PPBRs (%) (plasma protein [2]; [5]): 33.77 ± 0.07 ^a %
- PPBRs (%) (plasma protein [2]; 5 μg/mL, 20 °C, n = 3): 22.07 ± 1.19 ^B %
- PPBRs (%) (plasma protein [2]; 5 μg/mL, 25 °C, n = 3): 23.36 ± 3.86 ^B %
- PPBRs (%) (plasma protein [2]; [7]): 23.36 ± 3.86 ^a %
- PPBRs (%) (plasma protein [2]; 10 μg/mL, 15 °C, n = 3): 16.95 ± 1.81 ^C %
- PPBRs (%) (plasma protein [2]; [8]): 16.95%
- PPBRs (%) (plasma protein [2]; [9]): 16.95 ± 1.81 ^a %
- PPBRs (%) (plasma protein [2]; 10 μg/mL, 20 °C, n = 3): 8.34 ± 2.29 ^C %
- PPBRs (%) (plasma protein [2]; [10]): 8.34 ± 2.29 ^b %
- PPBRs (%) (plasma protein [2]; 10 μg/mL, 25 °C, n = 3): 5.52 ± 1.99 ^C %
- PPBRs (%) (plasma protein [2]; [11]): 5.52 ± 1.99 ^B %
- PPBRs (%) (plasma protein [3]; 1 μg/mL, 15 °C, n = 3): 35.11 ± 5.18 ^a %
- PPBRs (%) (plasma protein [3]; [12]): 35.11%
- PPBRs (%) (plasma protein [3]; 1 μg/mL, 20 °C, n = 3): 37.93 ± 6.11 ^a %
- PPBRs (%) (plasma protein [3]; 1 μg/mL, 25 °C, n = 3): 39.12 ± 1.72 ^a %
- PPBRs (%) (plasma protein [3]; 5 μg/mL, 15 °C, n = 3): 14.39 ± 0.61 ^b %
- PPBRs (%) (plasma protein [3]; [5]): 14.39 ± 0.61 ^a %
- PPBRs (%) (plasma protein [3]; 5 μg/mL, 20 °C, n = 3): 17.46 ± 2.82 ^b %
- PPBRs (%) (plasma protein [3]; [6]): 17.46 ± 2.82 ^ab %
- PPBRs (%) (plasma protein [3]; 5 μg/mL, 25 °C, n = 3): 23.20 ± 5.87 ^b %
- PPBRs (%) (plasma protein [3]; 10 μg/mL, 15 °C, n = 3): 9.30 ± 5.15 ^C %
- PPBRs (%) (plasma protein [3]; [8]): 9.30%
- PPBRs (%) (plasma protein [3]; [9]): 9.30 ± 5.15 ^a %
- PPBRs (%) (plasma protein [3]; 10 μg/mL, 20 °C, n = 3): 10.84 ± 1.08 ^C %
- PPBRs (%) (plasma protein [3]; [10]): 10.84 ± 1.08 ^a %
- PPBRs (%) (plasma protein [3]; 10 μg/mL, 25 °C, n = 3): 7.77 ± 2.10 ^C %
- PPBRs (%) (plasma protein [3]; [11]): 7.77 ± 2.10 ^a %
